Experimental data as given in PMC5218480 (PLoS ONE, 2017).

Test system: MV-4-11 cells
Test: Gene expression microarray analysis (Affymetrix PrimeView) and GSEA
Assay type: cell-based, human
Design: RFU PODN (11730768_x_at) / Fold change /veh PODN (11730768_x_at) / RFU LINC00158 (11744669_a_at) / Fold change /veh LINC00158 (11744669_a_at) / RFU DUSP10 (11751237_a_at) / Fold change /veh DUSP10 (11751237_a_at) / RFU ID3 (11757404_x_at) / Fold change /veh ID3 (11757404_x_at) / RFU PLEKHG5 (11737974_s_at) / Fold change /veh PLEKHG5 (11737974_s_at) / RFU LRRC4B (11730491_at) / Fold change /veh LRRC4B (11730491_at) / RFU GIMAP4 (11747438_a_at) / Fold change /veh GIMAP4 (11747438_a_at) / RFU KRT8 (11758183_x_at) / Fold change /veh KRT8 (11758183_x_at) / RFU CNN1 (11734310_a_at) / Fold change /veh CNN1 (11734310_a_at) / RFU VPS37D (11726825_at) / Fold change /veh VPS37D (11726825_at) / RFU C10orf10 (11716522_x_at) / Fold change /veh C10orf10 (11716522_x_at) / RFU KIR2DL2 /// KIR2DL4 /// KIR2DL5A /// KIR2DL5B /// KIR2DS1 /// KIR2DS2 /// KIR2DS3 /// KIR2DS4 /// KIR3DL3 /// KIR3DL3 /// KIR3DS1 (11738374_at) / Fold change /veh KIR2DL2 /// KIR2DL4 /// KIR2DL5A /// KIR2DL5B /// KIR2DS1 /// KIR2DS2 /// KIR2DS3 /// KIR2DS4 /// KIR3DL3 /// KIR3DL3 /// KIR3DS1 (11738374_at) / RFU C1QL1 (11718748_at) / Fold change /veh C1QL1 (11718748_at) / RFU TMPRSS4 (11747572_a_at) / Fold change /veh TMPRSS4 (11747572_a_at) / RFU HAMP (11756126_x_at) / Fold change /veh HAMP (11756126_x_at) / RFU RNFT2 (11725882_a_at) / Fold change /veh RNFT2 (11725882_a_at) / RFU NR4A2 (11747474_a_at) / Fold change /veh NR4A2 (11747474_a_at) / RFU ABCC12 (11746883_a_at) / Fold change /veh ABCC12 (11746883_a_at) / RFU TMEM136 (11760407_x_at) / Fold change /veh TMEM136 (11760407_x_at) / RFU CLDN22 /// WWC2 (11732394_at) / Fold change /veh CLDN22 /// WWC2 (11732394_at) / RFU HLA-DPB1 (11760878_x_at) / Fold change /veh HLA-DPB1 (11760878_x_at) / RFU SPINT1 (11716480_a_at) / Fold change /veh SPINT1 (11716480_a_at) / RFU GAP43 (11754022_s_at) / Fold change /veh GAP43 (11754022_s_at) / RFU A4GNT (11735810_at) / Fold change /veh A4GNT (11735810_at) / RFU PRB3 (11715151_x_at) / Fold change /veh PRB3 (11715151_x_at) / RFU TUBB4B (11761932_at) / Fold change /veh TUBB4B (11761932_at) / RFU CAPN14 (11732068_a_at) / Fold change /veh CAPN14 (11732068_a_at) / RFU TMCC2 (11721928_a_at) / Fold change /veh TMCC2 (11721928_a_at) / RFU IRGQ (11745062_a_at) / Fold change /veh IRGQ (11745062_a_at) / RFU FAM174B (11720279_a_at) / Fold change /veh FAM174B (11720279_a_at) / RFU TMPRSS4 (11748680_a_at) / Fold change /veh TMPRSS4 (11748680_a_at) / RFU FAM212B (11763350_a_at) / Fold change /veh FAM212B (11763350_a_at) / RFU PLEKHG5 (11743358_a_at) / Fold change /veh PLEKHG5 (11743358_a_at) / RFU ZSCAN30 (11745921_a_at) / Fold change /veh ZSCAN30 (11745921_a_at) / RFU CMKLR1 (11741424_a_at) / Fold change /veh CMKLR1 (11741424_a_at) / RFU LOC101060620 /// MAPK8IP1 (11723275_at) / Fold change /veh LOC101060620 /// MAPK8IP1 (11723275_at) / RFU SPTSSB (11747773_x_at) / Fold change /veh SPTSSB (11747773_x_at) / RFU PRSS12 (11739890_at) / Fold change /veh PRSS12 (11739890_at) / RFU BIN1 (11741810_x_at) / Fold change /veh BIN1 (11741810_x_at) / RFU WNT11 (11732464_a_at) / Fold change /veh WNT11 (11732464_a_at) / RFU C10orf10 (11716521_a_at) / Fold change /veh C10orf10 (11716521_a_at) / RFU C5orf56 (11738089_at) / Fold change /veh C5orf56 (11738089_at) / RFU CYB561 (11721691_x_at) / Fold change /veh CYB561 (11721691_x_at) / RFU ANKRD19P (11752326_a_at) / Fold change /veh ANKRD19P (11752326_a_at) / RFU OR2T12 /// OR2T33 /// OR2T8 (11738714_s_at) / Fold change /veh OR2T12 /// OR2T33 /// OR2T8 (11738714_s_at) / RFU VCAN (11748164_a_at) / Fold change /veh VCAN (11748164_a_at) / RFU JSRP1 (11732532_at) / Fold change /veh JSRP1 (11732532_at) / RFU KRTAP10-11 (11738290_x_at) / Fold change /veh KRTAP10-11 (11738290_x_at) / RFU MYO3A (11730013_a_at) / Fold change /veh MYO3A (11730013_a_at) / RFU EBF3 (11725865_a_at) / Fold change /veh EBF3 (11725865_a_at) / RFU CAMK2N1 (11719241_x_at) / Fold change /veh CAMK2N1 (11719241_x_at) / RFU C5orf56 (11738088_a_at) / Fold change /veh C5orf56 (11738088_a_at) / RFU OLFML3 (11715873_a_at) / Fold change /veh OLFML3 (11715873_a_at) / RFU LOC100653217 /// NTM (11731650_a_at) / Fold change /veh LOC100653217 /// NTM (11731650_a_at) / RFU MAPK11 (11762145_a_at) / Fold change /veh MAPK11 (11762145_a_at) / RFU FIZ1 (11724087_x_at) / Fold change /veh FIZ1 (11724087_x_at) / RFU OASL (11726364_x_at) / Fold change /veh OASL (11726364_x_at) / RFU SOX15 (11748057_x_at) / Fold change /veh SOX15 (11748057_x_at) / RFU CD79A (11719716_a_at) / Fold change /veh CD79A (11719716_a_at) / RFU HIST1H1D (11736915_at) / Fold change /veh HIST1H1D (11736915_at) / RFU CASKIN2 (11723855_a_at) / Fold change /veh CASKIN2 (11723855_a_at) / RFU LOC730098 (11760151_x_at) / Fold change /veh LOC730098 (11760151_x_at) / RFU OR4N2 (11742367_at) / Fold change /veh OR4N2 (11742367_at) / RFU PRRT2 (11749266_a_at) / Fold change /veh PRRT2 (11749266_a_at) / RFU SNX32 (11753110_a_at) / Fold change /veh SNX32 (11753110_a_at) / RFU CDHR5 (11726645_a_at) / Fold change /veh CDHR5 (11726645_a_at) / RFU RCAN1 (11760418_a_at) / Fold change /veh RCAN1 (11760418_a_at) / RFU FAM167A (11723789_a_at) / Fold change /veh FAM167A (11723789_a_at) / RFU FAM26E (11764081_at) / Fold change /veh FAM26E (11764081_at) / RFU ISYNA1 (11749810_s_at) / Fold change /veh ISYNA1 (11749810_s_at) / RFU ACY1 (11761880_at) / Fold change /veh ACY1 (11761880_at) / RFU 11764098_at / Fold change /veh 11764098_at / RFU SAMD14 (11745864_x_at) / Fold change /veh SAMD14 (11745864_x_at) / RFU NPB (11741838_a_at) / Fold change /veh NPB (11741838_a_at) / RFU TMPRSS6 (11731388_a_at) / Fold change /veh TMPRSS6 (11731388_a_at) / RFU KRTAP10-2 (11738614_at) / Fold change /veh KRTAP10-2 (11738614_at) / RFU ARHGAP8 /// PRR5-ARHGAP8 (11727945_x_at) / Fold change /veh ARHGAP8 /// PRR5-ARHGAP8 (11727945_x_at) / RFU KRTAP5-7 /// NADSYN1 (11734609_at) / Fold change /veh KRTAP5-7 /// NADSYN1 (11734609_at) / RFU RASL12 (11751679_a_at) / Fold change /veh RASL12 (11751679_a_at) / RFU CDKN2B (11736163_a_at) / Fold change /veh CDKN2B (11736163_a_at) / RFU PRF1 (11729649_at) / Fold change /veh PRF1 (11729649_at) / RFU, ZNF638 /// ZNF638-IT1 / Fold change vs veh, ZNF638 /// ZNF638-IT1 / RFU, PANK3 / Fold change vs veh, PANK3 / RFU, SH3YL1 / Fold change vs veh, SH3YL1 / RFU, ZEB2 / Fold change vs veh, ZEB2 / RFU, NRIP1 / Fold change vs veh, NRIP1 / RFU, PTTG1IP / Fold change vs veh, PTTG1IP / RFU, CAPN2 / Fold change vs veh, CAPN2 / RFU, MED14 / Fold change vs veh, MED14 / RFU, SNORA58 / Fold change vs veh, SNORA58 / RFU, C1orf63 / Fold change vs veh, C1orf63 / RFU, LRRFIP1 / Fold change vs veh, LRRFIP1 / RFU, NDUFAF7 / Fold change vs veh, NDUFAF7 / RFU, SLC12A2 / Fold change vs veh, SLC12A2 / RFU, IBTK / Fold change vs veh, IBTK / RFU, ESF1 / Fold change vs veh, ESF1 / Fold change vs veh, TMEM50B / RFU, TAOK1 / Fold change vs veh, TAOK1 / RFU, ACBD3 / Fold change vs veh, ACBD3 / RFU, TMA16 / Fold change vs veh, TMA16 / RFU, RWDD3 / Fold change vs veh, RWDD3 / RFU, BCAT1 / Fold change vs veh, BCAT1 / RFU, EDEM3 / Fold change vs veh, EDEM3 / RFU, TMEM33 / Fold change vs veh, TMEM33 / RFU, WDR75 / Fold change vs veh, WDR75 / RFU, AHCTF1 / Fold change vs veh, AHCTF1 / RFU, TFRC / Fold change vs veh, TFRC / RFU, ZDHHC17 / Fold change vs veh, ZDHHC17 / RFU, NOM1 / Fold change vs veh, NOM1 / RFU, ARL8B / Fold change vs veh, ARL8B / RFU, ZBTB11 / Fold change vs veh, ZBTB11 / RFU, TAMM41 / Fold change vs veh, TAMM41 / RFU, KIAA1704 /// LOC100996395 / Fold change vs veh, KIAA1704 /// LOC100996395 / RFU, ING1 / Fold change vs veh, ING1 / RFU, TRMT61B / Fold change vs veh, TRMT61B / RFU, FUBP3 / Fold change vs veh, FUBP3 / RFU, TP53 / Fold change vs veh, TP53 / RFU, TNKS2 / Fold change vs veh, TNKS2 / RFU, ZFP14 / Fold change vs veh, ZFP14 / RFU, ACTR2 / Fold change vs veh, ACTR2 / RFU, PPP3R1 / Fold change vs veh, PPP3R1 / RFU, PIK3R1 / Fold change vs veh, PIK3R1 / RFU, HNRNPA1 / Fold change vs veh, HNRNPA1 / RFU, RNF170 / Fold change vs veh, RNF170 / RFU, ZNF28 / Fold change vs veh, ZNF28 / RFU, RNGTT / Fold change vs veh, RNGTT / RFU, OGT / Fold change vs veh, OGT / RFU, BRD1 / Fold change vs veh, BRD1 / RFU, MARS / Fold change vs veh, MARS / RFU, ZNF655 / Fold change vs veh, ZNF655 / RFU, FAHD1 / Fold change vs veh, FAHD1 / RFU, BDP1 / Fold change vs veh, BDP1 / RFU, LRRCC1 / Fold change vs veh, LRRCC1 / RFU, ARID1A / Fold change vs veh, ARID1A / RFU, ZNF146 / Fold change vs veh, ZNF146 / RFU, ZNF330 / Fold change vs veh, ZNF330 / RFU, GPN3 / Fold change vs veh, GPN3 / RFU, C9orf123 / Fold change vs veh, C9orf123 / RFU, N4BP2L2 / Fold change vs veh, N4BP2L2 / RFU, ARFIP1 / Fold change vs veh, ARFIP1 / RFU, FAM179B / Fold change vs veh, FAM179B / RFU, BCL10 / Fold change vs veh, BCL10 / RFU, UHRF1BP1L / Fold change vs veh, UHRF1BP1L / RFU, BET1 / Fold change vs veh, BET1 / RFU, CNOT2 / Fold change vs veh, CNOT2 / RFU, ZNF268 / Fold change vs veh, ZNF268 / Fold change vs veh, ZNF507 / RFU, DGCR2 / Fold change vs veh, DGCR2 / RFU, WDSUB1 / Fold change vs veh, WDSUB1 / Fold change vs veh, HSP90B1 /// MIR3652 / RFU, ADSS / Fold change vs veh, ADSS / RFU, GK / Fold change vs veh, GK / RFU, ZNF148 / Fold change vs veh, ZNF148 / RFU, TAF9 / Fold change vs veh, TAF9 / RFU, SLC1A5 / Fold change vs veh, SLC1A5 / RFU, SLMO2 / Fold change vs veh, SLMO2 / RFU, ABCC4 / Fold change vs veh, ABCC4 / RFU, LOC101060439 /// RAP1B / Fold change vs veh, LOC101060439 /// RAP1B / RFU, RFX7 / Fold change vs veh, RFX7 / RFU, GTPBP10 / Fold change vs veh, GTPBP10 / RFU, CNEP1R1 / Fold change vs veh, CNEP1R1 / RFU, BIVM-ERCC5 /// ERCC5 / Fold change vs veh, BIVM-ERCC5 /// ERCC5 / RFU, ILF3 / Fold change vs veh, ILF3 / RFU 11762660_at / Fold change /veh 11762660_at / RFU VCAN (11757783_s_at) / Fold change /veh VCAN (11757783_s_at) / RFU DDX43 (11728927_at) / Fold change /veh DDX43 (11728927_at) / RFU KRT8 (11758188_x_at) / Fold change /veh KRT8 (11758188_x_at) / RFU NKD1 (11759106_at) / Fold change /veh NKD1 (11759106_at) / RFU SRD5A1 (11742802_a_at) / Fold change /veh SRD5A1 (11742802_a_at) / RFU TPSAB1 /// TPSB2 (11721975_s_at) / Fold change /veh TPSAB1 /// TPSB2 (11721975_s_at) / RFU GSTM3 (11746129_a_at) / Fold change /veh GSTM3 (11746129_a_at) / RFU IL23R (11737362_x_at) / Fold change /veh IL23R (11737362_x_at) / RFU TMEM51 (11727254_a_at) / Fold change /veh TMEM51 (11727254_a_at) / RFU PIWIL2 (11732686_x_at) / Fold change /veh PIWIL2 (11732686_x_at) / RFU ORM1 (11744905_x_at) / Fold change /veh ORM1 (11744905_x_at) / RFU CCDC152 (11743942_at) / Fold change /veh CCDC152 (11743942_at) / RFU ECM1 (11717891_a_at) / Fold change /veh ECM1 (11717891_a_at) / RFU IL23R (11748794_a_at) / Fold change /veh IL23R (11748794_a_at) / RFU TNFAIP8L3 (11732012_x_at) / Fold change /veh TNFAIP8L3 (11732012_x_at) / RFU MBOAT4 (11741988_at) / Fold change /veh MBOAT4 (11741988_at) / RFU 11764193_at / Fold change /veh 11764193_at / RFU TMEM53 (11763286_at) / Fold change /veh TMEM53 (11763286_at) / RFU MAGEB2 (11727129_at) / Fold change /veh MAGEB2 (11727129_at) / RFU TMEM200A (11744735_a_at) / Fold change /veh TMEM200A (11744735_a_at) / RFU CCDC152 (11751479_a_at) / Fold change /veh CCDC152 (11751479_a_at) / RFU FAM211A (11726209_a_at) / Fold change /veh FAM211A (11726209_a_at) / RFU RGS16 (11746705_a_at) / Fold change /veh RGS16 (11746705_a_at) / RFU VCAN (11755009_s_at) / Fold change /veh VCAN (11755009_s_at) / RFU RHOB (11743442_s_at) / Fold change /veh RHOB (11743442_s_at) / RFU RGS16 (11720943_a_at) / Fold change /veh RGS16 (11720943_a_at) / RFU RGS16 (11720944_at) / Fold change /veh RGS16 (11720944_at) / RFU, VPS4B / Fold change vs veh, VPS4B / RFU, CREB1 / Fold change vs veh, CREB1 / RFU, DNAJC13 / Fold change vs veh, DNAJC13 / RFU, GNAQ / Fold change vs veh, GNAQ / RFU, CDK5R1 / Fold change vs veh, CDK5R1 / RFU, ZRANB3 / Fold change vs veh, ZRANB3 / RFU, CUL4A / Fold change vs veh, CUL4A / RFU, CCNY / Fold change vs veh, CCNY / RFU, UFL1 / Fold change vs veh, UFL1 / RFU, COG3 / Fold change vs veh, COG3 / RFU, DIAPH2 / Fold change vs veh, DIAPH2 / RFU, SKA2 / Fold change vs veh, SKA2 / RFU, AFF3 / Fold change vs veh, AFF3 / RFU, LMF1 / Fold change vs veh, LMF1 / RFU, IPO11 / Fold change vs veh, IPO11 / RFU, DFFB / Fold change vs veh, DFFB / RFU, FOXP1 / Fold change vs veh, FOXP1 / RFU, CARD8 / Fold change vs veh, CARD8 / RFU, STRN3 / Fold change vs veh, STRN3 / RFU, ADK / Fold change vs veh, ADK / RFU, RASSF2 / Fold change vs veh, RASSF2 / RFU, WIPF1 / Fold change vs veh, WIPF1 / RFU, LARP1B / Fold change vs veh, LARP1B / RFU, RASA1 / Fold change vs veh, RASA1 / RFU, RB1 / Fold change vs veh, RB1 / RFU, PPFIA1 / Fold change vs veh, PPFIA1 / RFU, MAT2A / Fold change vs veh, MAT2A / RFU, CCT5 / Fold change vs veh, CCT5 / RFU, WDR92 / Fold change vs veh, WDR92 / RFU, CUX1 / Fold change vs veh, CUX1 / RFU, TTC7A / Fold change vs veh, TTC7A / RFU, TMEM135 / Fold change vs veh, TMEM135 / RFU, DEPTOR / Fold change vs veh, DEPTOR / RFU, CPM / Fold change vs veh, CPM / RFU, DNAJB6 / Fold change vs veh, DNAJB6 / RFU, CACNA2D3 / Fold change vs veh, CACNA2D3 / RFU, DTX4 / Fold change vs veh, DTX4 / RFU, TFCP2 / Fold change vs veh, TFCP2 / RFU, GMCL1 /// GMCL1P1 / Fold change vs veh, GMCL1 /// GMCL1P1 / RFU, AEBP2 / Fold change vs veh, AEBP2 / RFU, SNHG1 /// SNORD22 /// SNORD25 /// SNORD26 /// SNORD27 /// SNORD28 /// SNORD29 /// SNORD31 / Fold change vs veh, SNHG1 /// SNORD22 /// SNORD25 /// SNORD26 /// SNORD27 /// SNORD28 /// SNORD29 /// SNORD31 / Fold change (Aza/veh), C12orf56 (ProbeSet 11735607_a_at) / Fold change (ACY-1035/veh), C12orf56 (ProbeSet 11735607_a_at) / Fold change (Aza/veh), FGFR1OP (ProbeSet 11751329_s_at) / Fold change (ACY-1035/veh), FGFR1OP (ProbeSet 11751329_s_at) / Fold change (Aza/veh), VPS36 (ProbeSet 11739960_a_at) / Fold change (ACY-1035/veh), VPS36 (ProbeSet 11739960_a_at) / RFU SYPL1 (11715823_x_at) / Fold change /veh SYPL1 (11715823_x_at) / RFU IGFBP7 (11715501_s_at) / Fold change /veh IGFBP7 (11715501_s_at) / RFU REEP3 (11722064_at) / Fold change /veh REEP3 (11722064_at) / RFU IGLL1 (11728026_x_at) / Fold change /veh IGLL1 (11728026_x_at): dose or concentration left out as unconfirmed
Settings: MV-4-11 cells, 48 hours

Nc1ncn([C@@H]2O[C@H](CO)[C@@H](O)[C@H]2O)c(=O)n1 [azacitidine]
Fold change /veh VCAN (11748164_a_at): 1.17
